# Data as given in ChEMBL document CHEMBL1201862, “PubChem BioAssay data set” (2004).
# Calls of active or inactive are those of the source.
# Key:
# [1] = target: Oxytocin receptor (Homo sapiens, UniProt P30559); test: Counterscreen for vasopressin 1 receptor (V1R) agonists: Fluorescence-based cell-based high throughput dose response assay for agonists of the Oxytocin Receptor (OXTR). [Related pubchem assays: 2435 (Primary screen (OXTR agonists in singlicate)), 434964 (Confirmation screen (V1R agonists in triplicate)), 434969 (Counterscreen (OXTR agonists in …; type: functional
# Sequence of Oxytocin receptor (P30559 whole entry): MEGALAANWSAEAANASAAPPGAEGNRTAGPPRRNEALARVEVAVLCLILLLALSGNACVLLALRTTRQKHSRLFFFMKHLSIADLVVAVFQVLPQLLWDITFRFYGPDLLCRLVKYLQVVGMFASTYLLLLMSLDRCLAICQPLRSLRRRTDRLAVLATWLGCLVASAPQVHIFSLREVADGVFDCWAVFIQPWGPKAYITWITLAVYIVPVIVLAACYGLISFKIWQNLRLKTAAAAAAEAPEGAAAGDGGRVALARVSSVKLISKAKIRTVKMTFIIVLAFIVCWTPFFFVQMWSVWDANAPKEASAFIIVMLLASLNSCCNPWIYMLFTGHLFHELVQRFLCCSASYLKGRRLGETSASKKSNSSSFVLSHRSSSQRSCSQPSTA
# [2] = target: Vasopressin V1a receptor (Homo sapiens, UniProt P37288); test: Fluorescence-based cell-based high throughput dose response screening assay for agonists of the vasopressin 1 receptor (V1R).; type: functional
# Sequence of Vasopressin V1a receptor (P37288 whole entry, the tested form may be a part): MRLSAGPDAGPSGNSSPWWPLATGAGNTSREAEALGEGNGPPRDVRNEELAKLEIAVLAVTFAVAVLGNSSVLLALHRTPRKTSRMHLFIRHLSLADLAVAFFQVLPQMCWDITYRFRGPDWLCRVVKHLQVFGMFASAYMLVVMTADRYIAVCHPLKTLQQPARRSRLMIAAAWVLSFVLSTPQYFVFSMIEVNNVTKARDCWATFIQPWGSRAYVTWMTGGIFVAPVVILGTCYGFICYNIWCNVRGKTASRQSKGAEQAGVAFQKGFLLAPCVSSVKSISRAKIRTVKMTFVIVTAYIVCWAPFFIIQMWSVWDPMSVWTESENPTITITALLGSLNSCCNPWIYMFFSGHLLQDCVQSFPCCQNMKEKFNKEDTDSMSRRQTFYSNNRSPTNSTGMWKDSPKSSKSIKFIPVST
# [3] = target: T1, RNA-binding protein pos-1 (Caenorhabditis elegans, UniProt G5EF15); test: inhibitors of POS-1/mex-3 RNA binding, dose response, biochemical, fluorescence polarization (AID 1964);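 also: purified POS-1 fused to maltose binding protein made in E. coli; potency of compounds blocking POS-1 binding to fluorescent RNA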
# T1 sequence (G5EF15 whole entry): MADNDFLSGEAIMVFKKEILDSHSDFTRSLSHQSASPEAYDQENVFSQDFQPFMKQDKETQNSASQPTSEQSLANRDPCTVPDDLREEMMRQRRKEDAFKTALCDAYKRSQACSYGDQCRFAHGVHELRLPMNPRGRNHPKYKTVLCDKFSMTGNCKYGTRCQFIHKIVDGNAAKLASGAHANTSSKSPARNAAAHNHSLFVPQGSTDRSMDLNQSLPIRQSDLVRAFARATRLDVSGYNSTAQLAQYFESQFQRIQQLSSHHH
# [4] = target: T2, Zinc finger protein mex-5 (Caenorhabditis elegans, UniProt Q9XUB2); test: MEX-5/TCR-2 RNA interaction inhibitors, dose response, biochemical, C. elegans, fluorescence polarization (AID 1960)
# T2 sequence (Q9XUB2 whole entry): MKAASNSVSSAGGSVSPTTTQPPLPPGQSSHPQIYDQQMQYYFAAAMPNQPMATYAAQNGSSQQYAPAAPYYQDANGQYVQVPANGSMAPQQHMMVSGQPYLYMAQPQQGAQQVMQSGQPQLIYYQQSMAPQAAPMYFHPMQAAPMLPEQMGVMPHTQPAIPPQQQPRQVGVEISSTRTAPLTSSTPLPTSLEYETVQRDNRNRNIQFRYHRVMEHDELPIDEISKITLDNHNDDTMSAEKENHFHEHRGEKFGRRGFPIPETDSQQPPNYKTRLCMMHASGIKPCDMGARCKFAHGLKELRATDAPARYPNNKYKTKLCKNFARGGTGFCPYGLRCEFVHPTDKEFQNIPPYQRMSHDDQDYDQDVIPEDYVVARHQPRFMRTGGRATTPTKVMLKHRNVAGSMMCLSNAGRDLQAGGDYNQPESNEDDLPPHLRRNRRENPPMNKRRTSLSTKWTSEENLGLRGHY
# [5] = target: T3, Bifunctional protein GlmU (Mycobacterium tuberculosis, UniProt P9WMN3); test: Inhibitors of Mycobacterial Glucosamine-1-phosphate acetyl transferase (GlmU). Secondary screen.; design: species or system Mycobacterium tuberculosis H37Rv
# T3 sequence (P9WMN3 whole entry): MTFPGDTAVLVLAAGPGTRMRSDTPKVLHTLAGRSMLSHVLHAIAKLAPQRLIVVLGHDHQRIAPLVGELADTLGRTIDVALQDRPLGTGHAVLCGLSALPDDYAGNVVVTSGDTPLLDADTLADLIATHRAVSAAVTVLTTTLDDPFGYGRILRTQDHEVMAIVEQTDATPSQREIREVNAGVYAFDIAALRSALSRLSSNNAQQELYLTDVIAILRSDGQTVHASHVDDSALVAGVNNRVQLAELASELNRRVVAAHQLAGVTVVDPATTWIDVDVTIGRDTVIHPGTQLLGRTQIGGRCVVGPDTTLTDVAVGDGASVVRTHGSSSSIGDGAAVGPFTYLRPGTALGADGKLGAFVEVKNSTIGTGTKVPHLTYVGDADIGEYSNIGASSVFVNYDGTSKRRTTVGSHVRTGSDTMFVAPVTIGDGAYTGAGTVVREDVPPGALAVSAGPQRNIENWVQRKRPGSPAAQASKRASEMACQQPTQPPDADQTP
# [6] = inhibitors of Bluetongue virus cytopathic effect, confirmation, arbovirus, BSR cells (AID 1250); type: functional;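 also: protection from viral cytopathic effect measured as cell viability by ATP luminescence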
# [7] = target: Heat shock protein HSP 90-alpha (Homo sapiens, UniProt P07900); type: functional, organism-based
# [8] = target: Peroxisome proliferator-activated receptor gamma/Nuclear receptor corepressor 2 (Homo sapiens, UniProt P37231+Q9Y618); test: Counterscreen for NR2E3 inverse agonists: TR-FRET-based biochemical high throughput dose response assay to identify inverse agonists of the interaction between peroxisome proliferator-activated receptor gamma (PPARg) and nuclear receptor co-repressor 2 (NCOR2).; type: functional
# [9] = target: Photoreceptor-specific nuclear receptor (Homo sapiens, UniProt Q9Y5X4); test: NR2E3 inverse agonists, dose response, biochemical, TR-FRET (AID 463256); type: functional
# Sequence of Photoreceptor-specific nuclear receptor (Q9Y5X4 whole entry): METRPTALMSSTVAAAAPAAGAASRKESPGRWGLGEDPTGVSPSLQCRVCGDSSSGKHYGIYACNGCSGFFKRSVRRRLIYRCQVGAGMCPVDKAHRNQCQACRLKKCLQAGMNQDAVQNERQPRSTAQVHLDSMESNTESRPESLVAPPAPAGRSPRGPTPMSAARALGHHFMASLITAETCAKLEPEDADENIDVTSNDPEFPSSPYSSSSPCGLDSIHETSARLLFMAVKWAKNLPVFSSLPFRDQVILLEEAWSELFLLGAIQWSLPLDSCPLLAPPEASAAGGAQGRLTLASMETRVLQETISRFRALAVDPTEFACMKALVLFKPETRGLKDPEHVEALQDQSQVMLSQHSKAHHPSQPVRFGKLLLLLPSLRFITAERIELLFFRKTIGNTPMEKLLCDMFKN
# [10] = target: Calpain-2 catalytic subunit (Sus scrofa, UniProt P43367); test: pig calpain II inhibitor potency, dose response, biochemical, fluorogenic peptide substrate (AID 1420); type: functional
# Sequence of Calpain-2 catalytic subunit (P43367 whole entry): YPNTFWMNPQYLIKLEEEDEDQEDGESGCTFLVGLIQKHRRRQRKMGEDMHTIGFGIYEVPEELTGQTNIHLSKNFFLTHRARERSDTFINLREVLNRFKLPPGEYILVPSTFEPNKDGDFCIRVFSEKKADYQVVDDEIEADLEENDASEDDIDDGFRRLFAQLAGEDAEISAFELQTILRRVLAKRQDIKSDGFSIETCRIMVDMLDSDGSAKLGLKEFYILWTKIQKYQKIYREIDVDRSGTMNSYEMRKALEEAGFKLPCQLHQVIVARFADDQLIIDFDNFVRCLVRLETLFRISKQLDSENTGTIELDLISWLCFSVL
# [11] = target: T4, Estrogen receptor (Homo sapiens, UniProt P03372);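 also: potency for inhibiting coactivator peptide recruitment to the receptor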
# T4 sequence (P03372 whole entry): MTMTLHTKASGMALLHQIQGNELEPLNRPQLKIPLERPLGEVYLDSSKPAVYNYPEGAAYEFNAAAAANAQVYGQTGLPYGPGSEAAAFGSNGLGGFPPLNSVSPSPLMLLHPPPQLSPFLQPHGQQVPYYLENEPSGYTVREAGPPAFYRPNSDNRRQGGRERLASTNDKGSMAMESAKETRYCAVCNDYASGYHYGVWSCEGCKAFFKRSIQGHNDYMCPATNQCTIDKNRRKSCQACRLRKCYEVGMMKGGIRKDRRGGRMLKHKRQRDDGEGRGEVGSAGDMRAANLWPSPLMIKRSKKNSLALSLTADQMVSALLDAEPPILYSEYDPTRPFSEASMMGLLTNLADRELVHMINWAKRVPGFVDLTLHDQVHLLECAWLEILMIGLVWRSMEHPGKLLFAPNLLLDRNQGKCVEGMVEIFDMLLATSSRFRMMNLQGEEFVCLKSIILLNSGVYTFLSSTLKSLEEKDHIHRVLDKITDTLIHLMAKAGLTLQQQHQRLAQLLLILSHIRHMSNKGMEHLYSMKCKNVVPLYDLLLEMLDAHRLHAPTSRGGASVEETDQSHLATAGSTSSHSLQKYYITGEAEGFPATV
# [12] = target: T5, Estrogen receptor beta (Homo sapiens, UniProt Q92731);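 also: recombinant ER-beta bound to coactivator SRC1 peptide in presence of estradiol agonist; inhibitors block coactivator peptide binding and lower the FRET signal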
# T5 sequence (Q92731 whole entry): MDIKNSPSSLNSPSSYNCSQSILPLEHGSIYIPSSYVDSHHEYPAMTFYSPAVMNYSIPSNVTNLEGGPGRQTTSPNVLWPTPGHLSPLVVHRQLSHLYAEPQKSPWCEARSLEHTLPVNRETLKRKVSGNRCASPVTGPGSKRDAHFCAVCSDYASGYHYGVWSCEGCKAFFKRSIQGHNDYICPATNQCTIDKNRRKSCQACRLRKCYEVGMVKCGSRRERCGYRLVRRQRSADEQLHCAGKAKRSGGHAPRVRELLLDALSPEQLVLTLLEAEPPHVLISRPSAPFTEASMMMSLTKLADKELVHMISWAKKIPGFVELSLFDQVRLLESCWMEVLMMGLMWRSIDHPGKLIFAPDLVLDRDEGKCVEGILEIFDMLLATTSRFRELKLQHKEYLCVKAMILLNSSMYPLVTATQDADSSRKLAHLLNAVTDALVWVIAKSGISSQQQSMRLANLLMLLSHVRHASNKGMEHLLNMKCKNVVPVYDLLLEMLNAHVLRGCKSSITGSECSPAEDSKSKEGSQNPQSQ
# [13] = target: T5, Estrogen receptor beta; test: ERβ–SRC-3 coactivator interaction inhibitors, confirmation, orthogonal assay, biochemical, ELISA, streptavidin-HRP readout (AID 1060)
# [14] = target: NADPH oxidase 1 (Homo sapiens, UniProt Q9Y5S8); type: functional, cell-based;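 also: Cell-based assay with luminescence read-out, IC50 derived from inhibitor dose-response curves; intracellular ROS from endogenous NOX1 in intact HT29 colon cancer cells; potency of inhibitors that lower the ROS luminescence signal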
# Sequence of NADPH oxidase 1 (Q9Y5S8 whole entry): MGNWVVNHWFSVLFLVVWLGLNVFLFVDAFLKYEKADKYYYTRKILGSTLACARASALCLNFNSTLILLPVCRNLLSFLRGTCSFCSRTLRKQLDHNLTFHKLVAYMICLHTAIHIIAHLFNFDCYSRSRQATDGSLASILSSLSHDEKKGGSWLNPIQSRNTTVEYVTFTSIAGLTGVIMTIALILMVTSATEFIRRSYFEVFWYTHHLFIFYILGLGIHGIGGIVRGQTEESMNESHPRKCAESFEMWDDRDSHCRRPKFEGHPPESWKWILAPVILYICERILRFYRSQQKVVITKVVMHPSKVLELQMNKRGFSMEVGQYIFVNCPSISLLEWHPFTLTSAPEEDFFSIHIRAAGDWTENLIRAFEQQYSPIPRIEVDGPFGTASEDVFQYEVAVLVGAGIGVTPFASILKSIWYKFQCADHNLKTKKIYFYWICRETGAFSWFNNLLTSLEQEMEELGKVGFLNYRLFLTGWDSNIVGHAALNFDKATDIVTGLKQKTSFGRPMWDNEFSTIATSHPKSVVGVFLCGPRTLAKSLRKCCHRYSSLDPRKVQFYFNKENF
# [15] = target: Cytochrome P450 2C19 (Homo sapiens, UniProt P33261); test: qHTS Assay for Inhibitors and Substrates of Cytochrome P450 2C19. [Related pubchem assays: 410 ]; type: ADME; settings: read-out: Potency
# Sequence of Cytochrome P450 2C19 (P33261 whole entry): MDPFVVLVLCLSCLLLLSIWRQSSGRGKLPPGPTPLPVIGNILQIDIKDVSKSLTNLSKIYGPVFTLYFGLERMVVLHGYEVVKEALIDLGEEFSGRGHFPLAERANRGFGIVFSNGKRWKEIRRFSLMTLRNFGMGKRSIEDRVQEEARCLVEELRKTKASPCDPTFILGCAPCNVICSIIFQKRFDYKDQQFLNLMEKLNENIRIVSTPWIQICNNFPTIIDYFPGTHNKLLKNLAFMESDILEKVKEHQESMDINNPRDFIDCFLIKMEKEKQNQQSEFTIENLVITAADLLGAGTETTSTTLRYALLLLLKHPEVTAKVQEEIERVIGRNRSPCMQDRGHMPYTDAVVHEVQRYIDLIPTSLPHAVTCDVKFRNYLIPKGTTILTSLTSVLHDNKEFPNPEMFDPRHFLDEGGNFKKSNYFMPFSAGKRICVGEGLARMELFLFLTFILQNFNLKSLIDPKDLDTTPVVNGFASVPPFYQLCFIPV
# [16] = target: Cytochrome P450 2D6 (Homo sapiens, UniProt P10635); test: qHTS Assay for Inhibitors and Substrates of Cytochrome P450 2D6. [Related pubchem assays: 410 ]; type: ADME; settings: read-out: Potency
# Sequence of Cytochrome P450 2D6 (P10635 whole entry): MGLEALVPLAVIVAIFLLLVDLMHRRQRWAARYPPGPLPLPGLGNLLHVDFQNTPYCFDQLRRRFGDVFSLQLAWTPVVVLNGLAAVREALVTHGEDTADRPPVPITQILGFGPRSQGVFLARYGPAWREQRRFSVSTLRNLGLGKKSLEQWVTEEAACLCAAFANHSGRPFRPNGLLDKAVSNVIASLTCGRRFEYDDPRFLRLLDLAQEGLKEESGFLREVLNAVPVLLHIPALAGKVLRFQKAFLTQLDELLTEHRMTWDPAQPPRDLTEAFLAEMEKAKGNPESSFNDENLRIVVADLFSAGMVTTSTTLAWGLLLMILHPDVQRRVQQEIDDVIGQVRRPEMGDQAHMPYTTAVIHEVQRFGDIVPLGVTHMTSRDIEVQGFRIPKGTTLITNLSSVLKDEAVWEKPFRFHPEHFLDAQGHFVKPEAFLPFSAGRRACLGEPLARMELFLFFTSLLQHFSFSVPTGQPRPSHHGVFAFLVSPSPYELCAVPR
# [17] = target: Glyceraldehyde-3-phosphate dehydrogenase (Homo sapiens, UniProt P04406)
# Sequence of Glyceraldehyde-3-phosphate dehydrogenase (P04406 whole entry): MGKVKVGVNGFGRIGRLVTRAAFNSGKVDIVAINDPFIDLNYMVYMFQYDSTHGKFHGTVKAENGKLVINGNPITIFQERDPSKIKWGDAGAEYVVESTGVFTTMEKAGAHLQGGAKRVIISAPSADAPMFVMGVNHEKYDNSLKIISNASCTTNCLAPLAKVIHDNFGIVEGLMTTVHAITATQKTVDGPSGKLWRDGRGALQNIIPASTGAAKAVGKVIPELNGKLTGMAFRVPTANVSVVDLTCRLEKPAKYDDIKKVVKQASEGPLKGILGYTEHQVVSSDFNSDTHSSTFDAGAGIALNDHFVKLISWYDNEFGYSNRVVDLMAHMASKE
# [18] = target: T6, Bcl-2-related protein A1 (Mus musculus, UniProt Q07440); test: Bfl-1 inhibitors blocking BH3 peptide binding, confirmation, biochemical, TR-FRET, mouse Bfl-1 (AID 621);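 also: TR-FRET binding of GST-Bfl-1 to FITC-labelled Bid peptide via terbium antibody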
# T6 sequence (Q07440 whole entry): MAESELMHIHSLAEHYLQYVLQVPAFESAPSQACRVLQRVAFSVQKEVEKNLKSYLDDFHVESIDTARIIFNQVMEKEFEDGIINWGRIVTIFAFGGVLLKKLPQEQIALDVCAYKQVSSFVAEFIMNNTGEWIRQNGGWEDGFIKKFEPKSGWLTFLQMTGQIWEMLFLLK
# [19] = target: T6, Bcl-2-related protein A1; test: Bfl-1 binding inhibitors, SAR follow-up, biochemical, fluorescence polarization (AID 1070)
# [20] = Luminescent dose response cell-based high throughput screening assay for inhibitors of the Janus kinase 2 mutant JAK2V617F. [Related pubchem assays: 1446 (Primary screen.), 1521 (Confirmation assay.), 1486 (Counter screen.)]; type: functional
# [21] = system: HEK293; test: NOD1 signaling inhibitors, primary screen, cell-based, luminescence, uHTS (AID 1578); type: functional; settings: Homo sapiens
# [22] = system: BJ; test: cytotoxicity toward BJ-TERT fibroblasts, dose response, cell-based, RAS-independent, luminescence (AID 1933); type: functional; settings: Homo sapiens
# [23] = system: HEK293; test: cells; type: functional, cell-based; settings: Homo sapiens
# [24] = system: BJ; test: cells; type: functional, cell-based; settings: Homo sapiens, read-out: EC50
# [25] = system: HEK293; test: cells; type: functional, cell-based; settings: Homo sapiens; remark: listed apart in the source
# [26] = system: HEK293; test: NOD2 signaling inhibitors in MDP-stimulated cells, cell-based, uHTS, luminescence (AID 2001); type: functional; settings: Homo sapiens
# [27] = system: BJ; test: cytotoxicity toward BJ-TERT-LT-ST fibroblasts, dose response, cell-based, RAS-independent, luminescence (AID 1935); type: functional; settings: Homo sapiens;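 also: BJ fibroblasts immortalized with TERT plus LT and ST oncogenes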
# [28] = cytotoxicity toward DRD oncogenic fibroblasts, dose response, cell-based, non-viral oncogenic, luminescence (AID 1934); type: functional; settings: Homo sapiens
# [29] = target: Tumor necrosis factor (Homo sapiens, UniProt P01375); test: TNFa-triggered NF-kB activation inhibitors, SAR follow-up, cell-based, revised (AID 2337); type: functional
# Sequence of Tumor necrosis factor (P01375 whole entry, the tested form may be a part): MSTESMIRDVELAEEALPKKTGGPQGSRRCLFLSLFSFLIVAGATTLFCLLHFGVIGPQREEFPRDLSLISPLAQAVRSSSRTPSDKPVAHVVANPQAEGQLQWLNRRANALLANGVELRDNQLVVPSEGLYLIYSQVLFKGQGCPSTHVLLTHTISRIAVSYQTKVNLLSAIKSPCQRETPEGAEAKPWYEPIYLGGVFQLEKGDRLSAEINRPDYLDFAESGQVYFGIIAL
# [30] = target: T7, Nucleotide-binding oligomerization domain-containing protein 1 (Homo sapiens, UniProt Q9Y239); test: NOD1 signaling inhibitors, SAR follow-up, revised (AID 2333); type: functional
# T7 sequence (Q9Y239 whole entry): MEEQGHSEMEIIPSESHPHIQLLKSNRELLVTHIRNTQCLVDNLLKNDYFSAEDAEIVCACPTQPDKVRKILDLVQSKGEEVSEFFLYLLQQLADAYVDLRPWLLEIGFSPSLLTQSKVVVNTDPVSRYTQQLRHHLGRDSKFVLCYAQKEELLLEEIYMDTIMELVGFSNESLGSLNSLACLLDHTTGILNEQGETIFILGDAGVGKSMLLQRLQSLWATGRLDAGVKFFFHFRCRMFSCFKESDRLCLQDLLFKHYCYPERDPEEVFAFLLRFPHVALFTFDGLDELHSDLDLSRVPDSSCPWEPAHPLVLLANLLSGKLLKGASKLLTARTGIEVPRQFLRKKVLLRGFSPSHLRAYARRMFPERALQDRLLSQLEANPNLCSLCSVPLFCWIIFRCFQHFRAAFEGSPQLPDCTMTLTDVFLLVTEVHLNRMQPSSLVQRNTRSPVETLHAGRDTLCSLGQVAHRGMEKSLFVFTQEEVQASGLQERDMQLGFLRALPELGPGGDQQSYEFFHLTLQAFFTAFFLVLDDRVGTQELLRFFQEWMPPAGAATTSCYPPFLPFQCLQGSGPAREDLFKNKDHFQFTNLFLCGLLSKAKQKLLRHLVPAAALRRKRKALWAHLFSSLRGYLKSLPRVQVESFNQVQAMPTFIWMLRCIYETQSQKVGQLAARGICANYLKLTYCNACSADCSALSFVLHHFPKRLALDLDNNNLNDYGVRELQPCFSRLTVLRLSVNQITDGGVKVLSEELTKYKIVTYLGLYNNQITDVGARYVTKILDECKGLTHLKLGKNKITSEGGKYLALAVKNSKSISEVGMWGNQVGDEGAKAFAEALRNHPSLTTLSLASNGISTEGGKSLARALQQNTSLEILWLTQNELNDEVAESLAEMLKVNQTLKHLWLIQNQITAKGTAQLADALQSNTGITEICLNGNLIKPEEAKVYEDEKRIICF
# [31] = system: BJ; test: cytotoxicity toward Ras-transformed BJeLR fibroblasts, dose response, cell-based, alamar blue fluorescence, cherrypicked samples (AID 2631); type: functional; settings: Homo sapiens;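 also: confirmatory dose-response assay in RAS-dependent BJ fibroblasts engineered with TERT, LT and ST, with cytotoxicity read by fluorescence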
# [32] = system: Vero; test: cells; type: functional; settings: Chlorocebus sabaeus
# [33] = system: HEK293; test: cells; settings: Homo sapiens
# [34] = target: Neuropeptide Y receptor type 1 (Homo sapiens, UniProt P25929); type: functional;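 also: HEK293 cells with a CNG channel challenged with NPY then isoproterenol; potency as antagonist that reverses NPY suppression of cAMP signal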
# Sequence of Neuropeptide Y receptor type 1 (P25929 whole entry): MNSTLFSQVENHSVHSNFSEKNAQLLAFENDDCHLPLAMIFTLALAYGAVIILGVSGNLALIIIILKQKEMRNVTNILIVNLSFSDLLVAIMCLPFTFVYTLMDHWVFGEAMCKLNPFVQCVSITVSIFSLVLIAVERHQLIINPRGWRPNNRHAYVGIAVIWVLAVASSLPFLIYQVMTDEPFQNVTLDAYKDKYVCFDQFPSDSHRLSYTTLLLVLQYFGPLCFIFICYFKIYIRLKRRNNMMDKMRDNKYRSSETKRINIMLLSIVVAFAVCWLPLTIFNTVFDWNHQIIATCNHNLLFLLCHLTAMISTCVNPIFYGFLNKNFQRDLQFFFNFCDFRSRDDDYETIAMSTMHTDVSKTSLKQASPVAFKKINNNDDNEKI
# [35] = inhibitors of intracellular T. cruzi replication, confirmation, NIH3T3 host cells, beta-gal luminescence (AID 2044); type: functional, cell-based;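 also: intracellular parasites grown in NIH/3T3 mouse fibroblasts as host cells; luminescent beta-galactosidase reporter signal from transgenic T. cruzi replicating inside host cells; inhibitors lower the luminescence signal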
# [36] = target: Neuropeptide Y receptor type 2 (Homo sapiens, UniProt P49146); type: functional, cell-based;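 also: HEK293 cells expressing the receptor and a CNG channel; stimulus was NPY near EC95 followed by isoproterenol to raise cAMP; antagonist potency measured as restoring cAMP signal that NPY suppresses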
# [37] = cytotoxicity toward NIH3T3 fibroblasts, dose response, counter-screen, cell-based, ATP luminescence, mouse fibroblasts (AID 2010); type: functional;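 also: cells exposed to compound for about 90 hours before reading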
# [38] = Luminescence Cell-Based Dose Confirmation HTS to Identify Inhibitors of Polyadenylation.; type: functional
smiles,measurement,setting,value
CCN(CC)c1ccc2cc(C(N)=O)/c(=N\NC(=O)c3ccncc3)oc2c1,EC50,[1],21.8 µM (not active)
same,EC50,[2],18.6 µM (not active)
Cc1cc(/C=c2\sc3nc4ccccc4n3c2=O)c(C)n1-c1ccc(C(=O)O)cc1,EC50,[3],> 300 µM (not active)
same,EC50,[4],> 300 µM (not active)
same,IC50,[5],171 µM (active)
same,IC50,[6],25.8 µM (active)
same,AC50,[7],24.5 µM (active)
Cc1ccc2oc(=O)cc(CN3CCCCC3)c2c1,IC50,[8],> 39.8 µM (not active)
same,IC50,[9],7.54 µM (active)
C=CCNC(=S)N/N=C/c1cccc([N+](=O)[O-])c1,IC50,[10],6.63 µM (active)
Cc1ccc(OCc2ccoc2C(=O)O)cc1C,IC50,[11],25.4 µM (active)
same,IC50,[12],5.86 µM (active)
same,IC50,[13],< 0.023 µM (not active)
COc1ccc(/C=N/Nc2c(Cl)cncc2Cl)c(OC)c1OC,IC50,[14],> 17 µM (not active)
COC(=O)NC(/C(C(=O)OC)=C(\C)NCc1ccccc1)c1cccc(F)c1 (stereo not drawn),AC50,[15],7.94 µM (inconclusive)
same,AC50,[16],5.01 µM (inconclusive)
COc1cccc(-c2cc(C(F)(F)F)nc(S(C)(=O)=O)n2)c1,IC50,[17],> 100 µM (not active)
same,IC50,[18],2.24 µM (active)
same,IC50,[19],6.78 µM (active)
Cc1cccc(Nc2nc(N)nc(CCl)n2)c1C,IC50,[20],0.628 µM (active)
same,EC50,[21],10.8 µM (active)
same,EC50,[22],2.19 µM (inconclusive)
same,IC50,[23],9.12 µM (active)
same,EC50,[24],2.02 µM (active)
same,IC50,[25],> 20 µM (inactive)
same,IC50,[26],9.47 µM (active)
same,EC50,[27],> 75 µM (inconclusive)
same,EC50,[28],0.65 µM (active)
same,IC50,[29],9.45 µM (active)
same,IC50,[30],4.04 µM (active)
same,EC50,[31],6.44 µM (active)
same,CC50,[32],2.11 µM (active)
same,IC50,[33],> 20 µM (inactive)
Cc1ccccc1N1CCN(CCCOc2ccc3c(C)cc(=O)oc3c2)CC1,IC50,[34],> 35 µM (not active)
same,EC50,[35],0.124 µM (active)
same,IC50,[36],> 35 µM (not active)
same,EC50,[37],9.32 µM (active)
COc1ccccc1N1CCN(C(=O)CCNS(=O)(=O)c2ccc(Br)s2)CC1,EC50,[38],> 120 µM (not active)
